Experimental data taken from ChEMBL document CHEMBL4480461, “Karamomycins A-C: 2-Naphthalen-2-yl-thiazoles from Nonomuraea endophytica” (J Nat Prod, 2019).
Activity calls are given as the source filed them.

Assays:
Type in all cases: functional, organism-based
[1] = test system: Streptomyces viridochromogenes; assay: Antimicrobial activity against Streptomyces viridochromogenes Tue57 at 40 ug/disc by agar diffusion method
Candida albicans = assay: Antimicrobial activity against Candida albicans at 40 ug/disc by agar diffusion method
Chlorella vulgaris = assay: Antimicrobial activity against Chlorella vulgaris at 40 ug/disc by agar diffusion method
Staphylococcus aureus = assay: Antimicrobial activity against Staphylococcus aureus at 40 ug/disc by agar diffusion method
Chlorella sorokiniana = assay: Antimicrobial activity against Chlorella sorokiniana at 40 ug/disc by agar diffusion method
Desmodesmus subspicatus = assay: Antimicrobial activity against Scenedesmus subspicatus at 40 ug/disc by agar diffusion method
Escherichia coli = assay: Antimicrobial activity against Escherichia coli at 40 ug/disc by agar diffusion method
Bacillus subtilis = assay: Antimicrobial activity against Bacillus subtilis ATCC 6051 at 40 ug/disc by agar diffusion method
Rhizomucor miehei = assay: Antimicrobial activity against Mucor miehei Tu 284 at 40 ug/disc by agar diffusion method

Measured: Activity

COc1cc(C2=N[C@H]([C@@H]3SC[C@H]4[C@@H]5SC[C@](C)(C(=O)N43)N5C)CS2)c(O)c2ccccc12
inactive: [1] | Candida albicans | Chlorella vulgaris | Staphylococcus aureus | Chlorella sorokiniana | Desmodesmus subspicatus | Escherichia coli | Bacillus subtilis | Rhizomucor miehei

COc1cc(C2=N[C@H](CO)CS2)c(O)c2ccccc12
inactive: [1] | Candida albicans | Chlorella vulgaris | Staphylococcus aureus | Chlorella sorokiniana | Desmodesmus subspicatus | Escherichia coli | Bacillus subtilis | Rhizomucor miehei

COc1cc(-c2nc(CO)cs2)c(O)c2ccccc12
inactive: [1] | Candida albicans | Chlorella vulgaris | Staphylococcus aureus | Chlorella sorokiniana | Desmodesmus subspicatus | Escherichia coli | Bacillus subtilis | Rhizomucor miehei
